According to US4644010A, “Certain β-oxo-α-carbamoylpyrrolepropionitriles” (Ciba-Geigy Corporation, priority 1984, dated 1987):

Columns and labels:
[1] = test system: established adjuvant arthritis in the rat; experiment: established adjuvant arthritis test; type: in vivo; conditions: dose ranging from about 5 to 25 mg/kg/p.o.
Experimental: The established adjuvant arthritis test for anti-arthritic activity is performed essentially as described in Proc. Soc. Biol. Med. 137, 506 (1971).

[2] = test system: phenyl-p-benzoquinone-induced writhing in mice; experiment: phenyl-p-benzoquinone-induced writhing test for analgesic activity; type: in vivo; conditions: mouse, dose ranging from about 1 to 30 mg/kg p.o.
Experimental: The phenyl-p-benzoquinone-induced writhing test for analgesic activity, described in J. Pharmacol. Exp. Therap. 125, 237 (1959) is performed in mice as follows:
Mice previously fasted overnight are treated orally with the test compound dissolved in 0.75% methylcellulose at doses of 1 to 50 mg/kg, or with the vehicle alone, 55 minutes before the induction of the writhing syndrome by i.p. injection of 0.25 ml of a suspension of phenyl-p-benzoquinone (0.03%) in tragacanth (0.4%).
Starting 5 minutes, thereafter, the number of writhing movements provoked by the irritant are counted over an observation period of 10 minutes. The analgesic antinociceptive) ED50 of the test compound is the dose which reduces the mean frequency of writhing movements by 50% in comparison to the controls.

[3] = test system: proteoglycan matrix of bovine nasal septum cartilage; experiment: cartilage-synovium co-culture model of cartilage matrix degradation; type: cell-based; conditions: concentration range of about 10^-7 M to 10^-5 M
Experimental: The compounds of the invention are also active in the cartilage-synovium co-culture model of cartilage matrix degradation, indicative of their effectiveness in osteoarthritis. The screen is carried out as follows:
The proteoglycan matrix of bovine nasal septum cartilage is labeled into vitro by incorporation of ^35 S into glycosaminoglycan. Cartilage slices are incubated overnight in a sulfate-free medium containing ^35 S-sodium sulfate. ^35 S-Labeled cartilage slices are co-cultured with normal synovium explants in multiwell tissue culture plates. After 4 days incubation a 100 μl aliquot of medium is counted. Cartilage slices are hydrolyzed and a 100 μl aliquot of cartilage hydrolysate is counted. The percent ^35 S released into the medium is determined and the percent of inhibition of matrix degradation is calculated.

[4] = test system: BCG-immunized adjuvant arthritic rat; experiment: skin test (delayed hypersensitivity) in the BCG-immunized adjuvant arthritic rat; type: in vivo; conditions: 25 mg/kg/p.o.
Experimental: The enhancement of cell-mediated immunity is determined in vivo in the BCG-immunized arthritic rat by measurement of delayed hypersensitivity reaction essentially as described in Current Therapeutic Research 30, S34 (1981).
Charles River male rats weighing 325-400 g are sensitized by intradermal injection into the right hind foot pad with […] per animal of Mycobacterium tuberculosis (Difco) emulsified in Freund's incomplete adjuvant. Animals are immunized with 0.1 ml of BCG vaccine intradermally on day 18 after adjuvant injection. Corn starch suspensions of drugs are administered orally. Control animals are dosed with cornstarch vehicle only. All animals are skin-tested with 10 μg PPD intradermally on day 29 to elicit skin reactions. The diameter of the erythema and induration reaction is measured 24 hours after antigen challenge. An increase in the diameter of the erythema is indicative of enhanced cellular immunity.

## N#CC(C(=O)Nc1ccc(F)cc1)C(=O)c1ccc[nH]1 (stereo not drawn) [Example 5, β-oxo-α-(4-fluorohenylcarbamoyl)-β-(2-pyrrolyl)-propionitrile]
[1]
  activity in the established adjuvant arthritis test: active
[2]
  activity in the phenyl-p-benzoquinone test for analgesia: active

## N#CC(C(=O)Nc1ccc(F)cc1F)C(=O)c1ccc[nH]1 (stereo not drawn) [Example 3, β-oxo-α-(2,4-difluorophenylcarbamoyl)-β-(2-pyrrolyl)-propionitrile]
[1]
  activity in the established adjuvant arthritis test: active
[3]
  inhibition of cartilage matrix degradation in vitro: inhibit cartilage matrix degradation
[2]
  activity in the phenyl-p-benzoquinone test for analgesia: active

## N#CC(C(=O)Nc1ccc(Cl)cc1)C(=O)c1ccc[nH]1 (stereo not drawn) [Example 2, β-oxo-α-(4-chlorophenylcarbamoyl)-β-(2-pyrrolyl)propionitrile]
[4]
  activity in the skin test (immunopotentiating activity): significant activity
[1]
  activity in the established adjuvant arthritis test: active
[3]
  inhibition of cartilage matrix degradation in vitro: inhibit cartilage matrix degradation
[2]
  activity in the phenyl-p-benzoquinone test for analgesia: active

## N#CC(C(=O)Nc1ccccc1)C(=O)c1ccc[nH]1 (stereo not drawn) [Example 1, β-oxo-α-(phenylcarbamoyl)-β-(2-pyrrolyl)-propionitrile]
[4]
  activity in the skin test (immunopotentiating activity): significant activity
[1]
  activity in the established adjuvant arthritis test: active
[3]
  inhibition of cartilage matrix degradation in vitro: inhibit cartilage matrix degradation
[2]
  activity in the phenyl-p-benzoquinone test for analgesia: active
